Results taken from patent US6337130B1, “Acid-triggered release microcapsules” (Zeneca Limited, priority 1998, dated 2002).

Assay: In vitro release rate evaluation: evaporative weight loss of butylate from microcapsules under vacuum (Cahn RH electrobalance)
Type: physicochemical
Conditions: 40° C.
Experimental: This composition was tested in vitro for release rate in the presence of acid as follows: 5.0 grams of formulation were diluted with 25.0 grams of water. Two 1.5 gram aliquots were removed, vacuum filtered onto 0.22 μm filter paper, and placed in a jar (to reduce volatilization of butylate) until the release rate measurement was performed. The remainder of the solution was treated with a concentrated solution of p-toluenesulfonic acid to pH 2.02. The acid treated solution was rolled for 10 minutes after which several 1.5 gram aliquots of the acid treated solution were removed, vacuum filtered onto 0.22 μm filter paper, and placed in a jar (to reduce volatilization butylate) until the release rate measurement was performed.
Release rate studies were conducted employing a Cahn RH electrobalance to monitor the rate of evaporative weight loss of butylate (a model compound with a high vapor pressure) from microcapsules under vacuum. The sample (on the filter paper) was placed on the sample pan of the electrobalance and allowed to equilibrate at 40° C. for 10-15 minutes in the sealed system prior to placing under vacuum. The weight loss, measured with the electrobalance enclosed under vacuum, was recorded on a chart recorder.

CCSC(=O)N(CC(C)C)CC(C)C [butylate, S-ethyl diisobutyl thiocarbamate]
release rate of non-encapsulated butylate: The release rate of non-encapsulated butylate was determined to be about 17-19 mg/min.
